Tests used:
[1] = Rat CNS exposure (plasma, CSF, brain); format: in vivo, male SD rats; conditions: SC 1 mg/kg, 1.00 h
Method: (§1) These rats were typically about 6-8 weeks old, weighing 200 g to 300 g. Animals were fasted overnight and free access to food 4 hours after dosing. A required volume of vehicle was added to reach the target concentration of the test article and vehicle component to prepare for the dosing. The dosing vehicle was PEG400 or 30% PEG400 in saline for IV, or 0.5% methylcellulose in water for PO. For IV dosing, the animals were administered intravenously via tail vein. For PO dosing, the animals were administered via oral gavage. After dosing, blood sample was collected (˜0.2 mL per time point) through jugular vein or heart puncture. Blood of each sample was transferred into plastic micro centrifuge tubes containing EDTA-K2. Collection tubes with blood samples and anticoagulant were inverted several times for proper mixing of the tube contents and then placed on wet ice. The blood samples were centrifuged at 2000 g for 5 minutes at 4° C. to obtain plasma which was stored in a freezer at −75±15° C. prior to analysis. Samples were analyzed using LC-MS/MS. WinNonlin were used for pharmacokinetic calculations.
For CSF sampling, after anesthesia, the foramen magnum was exposed, and a syringe was used with a venoclysis needle to sample the CSF. The CSF samples were stored in polypropylene tubes, then stored in a freezer at −75±15° C. prior to analysis.
For brain sampling, the rats were fully exsanguinated by using a risen of carbon dioxide prior to brain collection. Brain samples were then collected at adopted time point, quick frozen and kept at −75±15° C. All brain samples were weighted and homogenated with PBS by brain weight (g) to PBS volume (mL) ratio 1:3 before analysis. The actual concentration is the detected value multiplied by the dilution factor.

[2] = Mouse pharmacokinetic study (plasma); format: in vivo, male C57BL/6J mice; conditions: PO 5 mg/kg
Method: as §1, with “The rat pharmacokinetics studies of exemplary compounds 03-3, 03-5, and 03-115 were conducted with male SD rats. These” for “These”
Mouse pharmacokinetics studies of exemplar compounds 03-3 and 03-5 were conducted substantially similarly to the rat pharmacokinetic studies, instead using male C57BL/6J mice. These mice were typically about 6-8 weeks old, weighing 20 g to 30 g. Animals were free access to food before dosing. Sample amount was ˜0.03 mL per time point and sample site was dorsal metatarsal or heart puncture.

[3] = Dog pharmacokinetic study; format: in vivo, male Beagle dogs
Method: as §1, with “The rat pharmacokinetics studies of exemplary compounds 03-3, 03-5, and 03-115 were conducted with male SD rats. These” for “These”
Dog pharmacokinetics studies of exemplary compounds 03-3, 03-5, and 03-115 were conducted substantially similarly to the rat pharmacokinetic studies, instead using male Beagle dogs. Animals for PO studies were food fasted overnight prior to dosing and were fed approximately 2 hours after dosing. Animals for IV studies had free access to food and water. Blood samples were collected through venipuncture of peripheral veins except the dosing vein.

Cc1ncccc1[C@@H](O)CNC(C)(C)C [Compound 03-115]
Concentration, Brain [1]: 142 ng/g | Concentration, CSF [1]: 56.2 ng/mL | Concentration, Plasma [1]: 149 ng/mL | AUCInf [2]: 3018 ng·h/mL | Cmax [2]: 1751 ng/mL | MRTInf_obs [2]: 1.8 h | Tmax [2]: 0.5 h | AUCInf ([3]; PO 0.5 mg/kg): 132 ng·h/mL | Cmax ([3]; PO 0.5 mg/kg): 72.3 ng/mL | MRT ([3]; PO 0.5 mg/kg): 1.82 h | Tmax ([3]; PO 0.5 mg/kg): 0.5 h | AUCInf ([3]; PO 1.5 mg/kg): 537 ng·h/mL | Cmax ([3]; PO 1.5 mg/kg): 387 ng/mL | MRT ([3]; PO 1.5 mg/kg): 1.69 h | Tmax ([3]; PO 1.5 mg/kg): 0.33 h

From patent US12448352B2, “Beta adrenergic agonist and methods of using the same” (Curasen Therapeutics, Inc., priority 2019, dated 2025)
